Measured values from patent US6902748B1, “Medicines manufactured from old platycodon extracts” (Jang Saeng Doraji Co., Ltd, priority 1999, dated 2005).

Tested on: edema of both feet of SD-rats
Experiment: Edema suppression in rheumatic arthritis model (heat-killed Mycobacterium injected into right sole)
Type: in vivo
Details: 4 mg/day; about 20 days after injection
Protocol: At about 20 days after injection of 0.6 mg/kg heat-killed 5. Mycobacterium histolyticm to the right sole of the feet of SD-rats, the degree of inhibition against inflammation was investigated by measuring the size of edema of both feet. The rats were divided into 7 groups and examined; feed group (group A) as a control group, not being caused edema, group B which was fed with 4 mg/day of predisolone as edema suppression agents, group C which was fed with 160 mg/day of ordinary platycodon extract, group D which was fed with 20 mg/day of 14 kinds of herbal medicine extract, group E which was fed with 160 mg/day of the old platycodon extract, group F which was fed with 40 mg/day of herbal medicine extract and 160 mg/day of the old platycodon extract. Each group was assigned to have 6 SD-rats.

C[C@]12C=CC(=O)C=C1CC[C@@H]1[C@@H]2[C@@H](O)C[C@@]2(C)[C@H]1CC[C@]2(O)C(=O)CO [predisolone]
Edema suppression activity in the left foot: 83.8%
Edema suppression activity in the right foot: 84.5%
